Assay [1] has as its system human clinical trials. Conditions: ref [22]; cited from earlier work. An excerpt: (§1) ATP-competitive small molecule inhibitors of the type II PAKs could be useful as cancer therapeutics. […] Sunitinib (SU11248) is a potent ATP-competitive multi-kinase inhibitor that is indicated for treatment of renal cell carcinoma, imatinib-resistant gastrointestinal stromal tumors, advanced pancreatic neuroendocrine tumors and other tumor types [ ...

Assay [2] relates to type II PAKs and also PAK1. Conditions: each of the type II PAKs and also PAK1; ref [22]; cited from earlier work.
Description: as §1

Assay [3] has as its system mouse models of cancer. Conditions: ref [22]; cited from earlier work.
Description: as §1

Assay [4] concerns the target type II PAKs. Conditions: range over the family, ref [41], read-out: Ki (estimated range); cited from earlier work. An excerpt: (§2) Therefore understanding how sunitinib binds to the type II PAKs may represent a starting point for future small molecule drug discovery. There are currently 6 co-crystal structures of protein kinases in complex with sunitinib deposited in the PDB. These kinases are of VEGFR (4AGD), KIT (3G0E), KIT-D816H mutation (3G0F), ITK (3MIY), CDK2 (3TI1) and phosphorylase kin ...

Assay [5] deals with PAK kinases. Conditions: ref [41], cited from earlier work.
Description: as §2

Assay [6] has as its target T1, PAK6 catalytic domain (residues 383–674) (Homo sapiens, UniProt Q9NQU5).
T1 construct: recombinant PAK6 catalytic domain (residues 383–674) purified as described above; 6xHis (N, cleaved yes); made in house; host or cells: E. coli BL21(DE3)
As to the kind of experiment: In vitro PAK6 kinase assay (trans-inhibition by peptides, MBP substrate, radioactive). The class given is biochemical. As to the method:
Catalytic domain residues 383–674 of PAK6 (UniProt Q9NQU5) were amplified from cDNA (Open Biosystems) then subcloned into a modified pET-32 vector with an N-terminal 6xHis tag cleavable by TEV protease. A single colony of transformed E. coli BL21(DE3) was grown in Luria-Bertani (LB) medium at 37°C for 7 hours with kanamycin sulfate (100 µg/ml). Then the fresh culture was inoculated (1∶100) into in LB supplemented with kanamycin sulfate (100 µg/ml). Protein expression was induced at an A 600 of 0.4 by addition of 0.3 mM isopropyl-thio-galactopyranoside (IPTG) at 18°C for 14 hr. Cells were harvested and then resuspended in lysis buffer (50 mM HEPES pH 7.5, 500 mM NaCl, 0.5 mM TCEP, and 1 mM PMSF). Lysozyme and DNAse-I were added and the mixture was incubated on ice before three cycles of flash-freezing in a dry ice and ethanol mixture and thawing at 4°C. Following sonication and centrifugation, the supernatant was collected and loaded onto a nickel sepharose column equilibrated with 100 ml binding buffer (50 mM HEPES pH 7.5, 500 mM NaCl, 5 mM imidazole, 0.5 mM TCEP, 5% glycerol). Contaminating proteins were washed away with 200 ml wash buffer (50 mM HEPES pH 7.5, 500 mM NaCl, 30 mM imidazole, 0.5 mM TCEP, 5% glycerol). PAK6 catalytic domain was eluted with an imidazole step gradient and identified by SDS-PAGE. Overnight TEV cleavage was performed by adding TEV protease and dialyzing the mixture against size exclusion buffer (50 mM Tris pH 8, 250 mM NaCl, 5 mM TCEP). PAK6 catalytic domain was then reloaded onto the nickel sepharose column to remove remaining uncleaved protein. The sample then was loaded onto a Superdex 75 16/60 gel-filtration column equilibrated with size exclusion buffer.
Kinase activity was assessed using a radioactive assay with myelin basic protein (MBP) as substrate. […] Kinase assays were performed by adding 150 nM of PAK6, 2 µM of MBP as the substrate, 50 µM of cold-ATP and 0.1 µCi of hot [γ-^33P] ATP in Tris buffer (20 mM Tris-HCl pH 8.0, 0.15 M NaCl, 1 mM DTT and 10 mM MgCl2) for a total volume of 25 µl. […] Control peptide ([…]) was purchased from Anaspec and inhibition assays were performed using between 0.5 mM and 4.5 mM of peptide. The reaction was conducted at 30°C for 10 min and stopped by addition of 5X sample buffer and analyzed by SDS-PAGE. Gels were analyzed by exposure to phosphor storage screen (GE) followed by scanning using a Molecular Imager FX Pro Plus System (Bio-Rad) and quantification by optical densitometry Quantity One (Bio-Rad). Relative activities were compared to those measured for PAK6. Measurements were calculated from at least three independent experiments.

Setting [7] is: 150 nM PAK6, 2 µM MBP, 50 µM cold-ATP, [γ-33P] ATP, 20 mM Tris-HCl pH 8.0, 0.15 M NaCl, 1 mM DTT, 10 mM MgCl2, 30°C, 10 min, SDS-PAGE/phosphor storage screen, 3 independent experiments, tested wild-type 0.06-5.85 mM, P52L 1.8-5.85 mM, control 0.5-4.5 mM, read-out: IC50 (inhibition of PAK6 kinase activity).
The mark [8] stands for this setting: 95% confidence interval of the IC50, 3 independent experiments, read-out: 95% confidence (of IC50).

We go through five compounds from publication PMC3810134, “Substrate and Inhibitor Specificity of the Type II p21-Activated Kinase, PAK6” (PLoS ONE, 2013).

Like-named read-outs stand apart in the source and are kept apart here. No end group written: not given here.

T1 sequence (Q9NQU5 383-674): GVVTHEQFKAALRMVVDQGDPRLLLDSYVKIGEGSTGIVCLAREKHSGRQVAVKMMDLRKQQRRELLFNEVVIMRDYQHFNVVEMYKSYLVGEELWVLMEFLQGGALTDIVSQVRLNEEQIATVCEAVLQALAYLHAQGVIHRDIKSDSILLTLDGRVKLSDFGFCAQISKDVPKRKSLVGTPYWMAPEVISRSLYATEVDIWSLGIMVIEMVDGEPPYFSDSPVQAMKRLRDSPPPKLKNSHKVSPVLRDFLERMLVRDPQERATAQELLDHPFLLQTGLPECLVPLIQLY

With `Cc1nc(Nc2[nH]nc3c2CN(C(=O)N[C@H](CN(C)C)c2ccccc2)C3(C)C)c2sccc2n1` [PF-3758309], in assay [1], the “outcome in human clinical trials” value is given as “failed in human clinical trials”. Besides, in assay [2], the in vitro activity entry was “displays in vitro activity against each of the type II PAKs and also PAK1”. The “efficacy in mouse models of cancer” value in assay [3] is listed as “effective in mouse models of cancer”.
`CCN(CC)CCNC(=O)c1c(C)[nH]c(/C=C2\C(=O)Nc3ccc(F)cc32)c1C` [Sunitinib]: in assay [4], the inhibition constant (Ki) was 0.5 to 7 µM. Moreover, in assay [5], the “inhibition of the PAK kinases overall” value was “weak inhibitor”. The selectivity result in assay [5] (type II vs type I PAK family members) is given as “selectivity for type II over type I PAK family members”.
As to APRTPGGRR [control peptide], the half-inhibitory concentration (IC50) in assay [6] was in the range of 3000 to 15000 µM.
Take RRPKLVVDP [P52L mutant peptide]: the results for the half-inhibitory concentration (IC50) in assay [6] (setting [7]) and in assay [6] (setting [8]) were 4200 µM and 3800 to 4600 µM, respectively.
For RRPKPVVDP [N-terminal peptide], the IC50 in assay [6] (setting [7]) was 600 µM; in assay [6] (setting [8]) it was 510 to 710 µM.

By Ki is commonly meant a dissociation constant, usually derived from enzyme kinetics or from competition with a known ligand. In general, IC50 refers to the concentration at which inhibition is half-maximal.
